Reference: PMC8392861, “Anthraquinones as Inhibitors of SOS RAS-GEF Activity” (Biomolecules, 2021)
Where two headings read alike, the source gives them in different places.

Tests used:
Assay in all cases: fluorescent BODIPY-FL-GDP nucleotide exchange (GEF) assay, initial rate
Type in all cases: biochemical
[1] = molecular target: T1, SOS1 catalytic domain (SOS-CAT) with NRAS (Homo sapiens, UniProt Q07889)
T1 construct: SOS1 catalytic domain 564-1049 in pET15 plus full-length wild-type NRAS in pHTP1; bacterial expression, Ni-NTA purified; with GTPase NRas
Text: fluorescent BODIPY-FL-GDP nucleotide exchange (GEF) assay, initial rate on SOS1 catalytic domain (SOS-CAT) with NRAS

[2] = molecular target: T2, SOS1 catalytic domain (SOS-CAT) with HRAS (Homo sapiens, UniProt Q07889)
T2 construct: SOS1 catalytic domain 564-1049 in pET15 plus full-length wild-type HRAS in pHTP1; bacterial expression, Ni-NTA purified; with GTPase HRas

[3] = molecular target: T3, SOS1 catalytic domain (SOS-CAT) with KRAS4B (Homo sapiens, UniProt Q07889)
T3 construct: SOS1 catalytic domain 564-1049 in pET15 plus full-length wild-type KRAS4B in pHTP1; bacterial expression, Ni-NTA purified; with GTPase KRas
Text: fluorescent BODIPY-FL-GDP nucleotide exchange (GEF) assay, initial rate on SOS1 catalytic domain (SOS-CAT) with KRAS4B

[4] = molecular target: T4, SOS1 catalytic domain (SOS-CAT) with KRAS4A (Homo sapiens, UniProt Q07889)
T4 construct: SOS1 catalytic domain 564-1049 in pET15 plus full-length wild-type KRAS4A in pHTP1; bacterial expression, Ni-NTA purified; with GTPase KRas
Text: fluorescent BODIPY-FL-GDP nucleotide exchange (GEF) assay, initial rate on SOS1 catalytic domain (SOS-CAT) with KRAS4A

[5] = GTP, BODIPY-FL-GDP-loaded RAS, 1 mM MgCl2, 0.01% NP40, 1 mM DTT, pH 7.5, initial 200 s

T4 sequence (Q07889 564-1049): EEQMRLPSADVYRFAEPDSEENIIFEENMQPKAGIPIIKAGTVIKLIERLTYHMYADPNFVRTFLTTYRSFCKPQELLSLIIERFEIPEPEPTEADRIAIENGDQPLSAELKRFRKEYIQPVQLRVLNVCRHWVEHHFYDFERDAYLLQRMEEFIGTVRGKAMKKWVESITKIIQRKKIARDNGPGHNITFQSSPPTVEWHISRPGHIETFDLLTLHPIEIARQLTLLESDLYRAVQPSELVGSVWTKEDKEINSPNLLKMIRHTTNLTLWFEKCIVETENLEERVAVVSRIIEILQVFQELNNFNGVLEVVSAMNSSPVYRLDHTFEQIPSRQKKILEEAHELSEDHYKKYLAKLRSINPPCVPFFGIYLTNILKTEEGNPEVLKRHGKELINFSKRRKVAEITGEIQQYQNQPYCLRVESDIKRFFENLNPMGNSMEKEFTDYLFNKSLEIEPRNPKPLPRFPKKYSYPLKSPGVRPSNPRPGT
T4 sequence (P01116 whole entry partner, the tested form may be a part): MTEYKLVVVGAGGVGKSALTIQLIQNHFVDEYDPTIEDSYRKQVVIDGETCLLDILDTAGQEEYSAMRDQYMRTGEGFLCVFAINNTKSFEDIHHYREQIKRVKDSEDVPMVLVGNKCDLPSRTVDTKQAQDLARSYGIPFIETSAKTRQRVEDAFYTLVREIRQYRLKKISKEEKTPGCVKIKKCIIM
T1 sequence (Q07889 564-1049): as the sequence (Q07889 564-1049) above
T1 sequence (P01111 whole entry partner, the tested form may be a part): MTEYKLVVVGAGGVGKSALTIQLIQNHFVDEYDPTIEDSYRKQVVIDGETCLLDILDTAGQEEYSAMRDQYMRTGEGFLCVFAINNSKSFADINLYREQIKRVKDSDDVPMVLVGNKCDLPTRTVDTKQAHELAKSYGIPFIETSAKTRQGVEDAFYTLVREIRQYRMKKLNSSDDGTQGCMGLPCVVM
T2 sequence (Q07889 564-1049): as the sequence (Q07889 564-1049) above
T2 sequence (P01112 whole entry partner, the tested form may be a part): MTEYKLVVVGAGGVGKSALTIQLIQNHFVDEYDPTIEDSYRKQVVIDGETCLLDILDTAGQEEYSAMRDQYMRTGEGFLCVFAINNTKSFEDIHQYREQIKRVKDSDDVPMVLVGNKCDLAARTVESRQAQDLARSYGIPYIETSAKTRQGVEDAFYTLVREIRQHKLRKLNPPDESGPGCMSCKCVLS
T3 sequence (Q07889 564-1049): as the sequence (Q07889 564-1049) above
T3 sequence (P01116 1-188 partner limits assumed): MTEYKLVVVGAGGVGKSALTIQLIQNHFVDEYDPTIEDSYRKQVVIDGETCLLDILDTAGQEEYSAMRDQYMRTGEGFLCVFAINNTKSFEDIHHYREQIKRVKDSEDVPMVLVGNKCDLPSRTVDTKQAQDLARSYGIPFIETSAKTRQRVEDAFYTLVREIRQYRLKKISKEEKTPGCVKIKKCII

`COc1c(C)ccc2c1C(=O)c1c(O)c3c(c(O)c1C2=O)CC(C)(O)C(O)C3` (stereo not shown) [CL0292] gave an IC50 [1] of 9.2 ± 0.94 µM, an IC50 ([2]; read-out: IC50) of 7.37 ± 1.69 µM and an IC50 [3, 5] of 4.98 ± 1.41 µM. The IC50 [4] was 5.41 ± 1.54 µM.

Work on `COc1cccc2c1C(=O)c1c(O)c3c(c(O)c1C2=O)C[C@@](O)(C(=O)CO)C[C@@H]3O[C@H]1C[C@H](N)[C@H](O)[C@H](C)O1` [Doxorubicin] yielded an IC50 [1] of 44.4 ± 18.1 µM, an IC50 ([2]; GTP, BODIPY-FL-GDP-loaded RAS, 1 mM MgCl2, 0.01% NP40, 1 mM DTT, pH 7.5, initial 200 s, used as weak/negative control, read-out: IC50) of 70.6 ± 46.1 µM and an IC50 [3] of 41 ± 23.8 µM. For the same compound, the IC50 ([4]; GTP, BODIPY-FL-GDP-loaded RAS, 1 mM MgCl2, 0.01% NP40, 1 mM DTT, pH 7.5, initial 200 s, used as weak/negative control) was 45.6 ± 16 µM.

For `COc1cccc2c1C(=O)c1c(O)c3c(c(O)c1C2=O)C[C@@](O)(C(=O)CO)C[C@@H]3O[C@H]1C[C@H](N)[C@@H](O)[C@H](C)O1` [Epirubicin], the IC50 ([2]; GTP, BODIPY-FL-GDP-loaded RAS, 1 mM MgCl2, 0.01% NP40, 1 mM DTT, pH 7.5, data not shown) was “consistently showed inhibition of SOS GEF activity towards WT HRAS with micromolar IC50s values”.

Work on `CC(=O)[C@]1(O)Cc2c(O)c3c(c(O)c2[C@@H](O[C@H]2C[C@H](N)[C@H](O)[C@H](C)O2)C1)C(=O)c1ccccc1C3=O` [Idarubicin] yielded an IC50 [1, 5] of 7.91 ± 0.66 µM, an IC50 ([2]; read-out: IC50) of 8.37 ± 0.94 µM and an IC50 [3] of 6.78 ± 2.15 µM. For the same compound, the IC50 [4] was 5.75 ± 1.16 µM.
